From patent US7022716B2, “Cyclic amine phenyl beta-3 adrenergic receptor agonists” (Wyeth, priority 2000, dated 2006)
Structures can show the parent of a compound that is named as a salt.

System: not given
Assay: not given
Details: not given

melting point	Structure (SMILES)
182 °C (dec.)	Cl.Nc1ccc([C@H](O)CNC2CCN(c3ccc(CC4SC(=O)NC4=O)cc3)CC2)cn1 (stereo partly shown)
> 200 °C (dec.)	CS(=O)(=O)Nc1cc(C(O)CNC2CCN(c3ccc(C=C4SC(=O)NC4=O)cc3)CC2)ccc1O (stereo not shown)
57 to 59 °C	CS(=O)(=O)Nc1ccc(C(O)CNC2CCN(c3ccc(CC4SC(=O)NC4=O)cc3)CC2)cn1 (stereo not shown) (as salt: salt) [Example 138, N-[5-(2-{1-[4-(2,4-Dioxo-thiazolidin-5-ylmethyl)-phenyl]-piperidin-4-ylamino}-1-hydroxy-ethyl)-pyridin-2-yl]-methanesulfonamide]
> 85 °C (dec.)	CS(=O)(=O)Nc1cc([C@@H](O)CNC2CCN(c3ccc(C(=O)NCC(=O)O)cc3)CC2)ccc1O (as salt: sodium) [Example 197, [(4-{4-[((2R)-2-Hydroxy-2-{4-hydroxy-3-[(methylsulfonyl)amino]phenyl}ethyl)amino]-1-piperidinyl}benzoyl)amino]acetic acid]

Biological target: T1, human β3 adrenergic receptor (Homo sapiens, UniProt P13945)
T1 construct: Full length β3 AR clones (402 amino acids) containing the last 6 amino acids of hβ3-AR are prepared; expressed in transfected cells; host or cells: CHO (Chinese hamster ovary) cells
Assay: cAMP (SPA) response in CHO cells transfected with human β3 adrenergic receptor
Format: cell-based
Design: key: fraction of maximal isoproterenol (10^-5 M) response
Details: maximal response relative to maximal response of isoproterenol at 10^-5 M
How it was run: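 Reactions were stopped with 0.2N HCl and neutralised, and cAMP was measured by SPA. Activity is expressed as percent of the maximal 10^−5 M isoproterenol response.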

T1 sequence (P13945 whole entry): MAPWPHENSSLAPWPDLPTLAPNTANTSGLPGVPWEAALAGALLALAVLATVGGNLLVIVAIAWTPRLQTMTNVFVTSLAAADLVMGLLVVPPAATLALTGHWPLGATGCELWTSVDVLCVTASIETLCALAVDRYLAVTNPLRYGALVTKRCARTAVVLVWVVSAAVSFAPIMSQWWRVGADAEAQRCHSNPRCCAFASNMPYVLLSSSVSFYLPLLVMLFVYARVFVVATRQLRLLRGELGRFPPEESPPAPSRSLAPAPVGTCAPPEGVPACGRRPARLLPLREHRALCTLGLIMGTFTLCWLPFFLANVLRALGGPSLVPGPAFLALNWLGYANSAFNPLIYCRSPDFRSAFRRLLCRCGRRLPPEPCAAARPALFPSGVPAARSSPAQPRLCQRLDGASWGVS

IA(β3)	Structure (SMILES)
0.64	O=C(CN1CCOCC1)Nc1ccc(N2CCC(NC[C@H](O)COc3cccc4[nH]c(=O)[nH]c34)CC2)cc1 [Example 383, N-{4-[4-({(2S)-2-Hydroxy-3-[(2-oxo-2,3-dihydro-1H-benzimidazol-4-yl)oxy]propyl}-amino)-1-piperidinyl]phenyl}-2-(4-morpholinyl)acetamide]
0.64	CN(C)CC(=O)Nc1ccc(N2CCC(NC[C@H](O)COc3cccc4[nH]c(=O)[nH]c34)CC2)cc1 [Example 384, 2-(Dimethylamino)-N-{4-[4-({(2S)-2-hydroxy-3-[(2-oxo-2,3-dihydro-1H-benzimidazol-4-yl)oxy]propyl}amino)-1-piperidinyl]phenyl}acetamide]
1.12	COc1ccc(C(=O)Nc2ccc(N3CCC(NCC(O)c4ccc(O)c(NS(C)(=O)=O)c4)CC3)cc2)cc1OC (stereo not shown) [Example 385, N-(4-{4-[(2-Hydroxy-2-{4-hydroxy-3-[(methylsulfonyl)amino]phenyl}ethyl)amino]-1-piperidinyl}phenyl)-3,4-dimethoxybenzamide]
0.56	COc1ccc(S(=O)(=O)Nc2ccc(N3CC(NC[C@H](O)COc4ccc(O)cc4)C3)cc2)cc1OC [Example 412, N-[4-(3-{[(2S)-2-hydroxy-3-(4-hydroxyphenoxy)propyl]amino}-1-azetidinyl)phenyl]-3,4-dimethoxybenzenesulfonamide]
0.73	CC(=O)Nc1ccc(S(=O)(=O)Nc2ccc(N3CC(NC[C@H](O)COc4ccc(O)cc4)C3)cc2)cc1 [Example 413, N-(4-{[4-(3-{[(2S)-2-Hydroxy-3-(4-hydroxyphenoxy)propyl]amino}-1-azetidinyl)anilino]-sulfonyl}phenyl)acetamide]
0.35	CC(=O)Nc1ccc(N2CC(NC[C@H](O)COc3cccc4[nH]c5ccccc5c34)C2)cc1 [Example 415, N-[4-(3-{[(2S)-3-(9H-Carbazol-4-yloxy)-2-hydroxypropyl]amino}-1-azetidinyl)phenyl]acetamide]
0.48	COc1ccc(S(=O)(=O)Nc2ccc(N3CC(NC[C@H](O)COc4cccc5[nH]c6ccccc6c45)C3)cc2)cc1OC [Example 416, N-[4-(3-{[(2S)-3-(9H-Carbazol-4-yloxy)-2-hydroxypropyl]amino}-1-azetidinyl)phenyl]-3,4-dimethoxybenzenesulfonamide]
0.71	CC(=O)Nc1ccc(S(=O)(=O)Nc2ccc(N3CC(NC[C@H](O)COc4cccc5[nH]c6ccccc6c45)C3)cc2)cc1 [Example 417, N-(4-{[4-(3-{[(2S)-3-(9H-Carbazol-4-yloxy)-2-hydroxypropyl]amino}-1-azetidinyl)anilino]sulfonyl}phenyl)acetamide]

Structure (SMILES)	IA(β3)
CCCCOc1ccc(S(=O)(=O)Nc2ccc(N3CC(NC[C@H](O)COc4ccc(O)cc4)C3)cc2)cc1 [Example 411, 4-Butoxy-N-[4-(3-{[(2S)-2-hydroxy-3-(4-hydroxyphenoxy)propyl]amino}-1-azetidinyl)phenyl]benzenesulfonamide]	0.49
